Data as given in PMC4805609, “Estrogenic Effects of Several BPA Analogs in the Developing Zebrafish Brain” (Frontiers in Neuroscience, 2016).
Where two headings read alike, the source gives them in different places.

How the values were obtained:
zebrafish embryos/larvae = experiment: Mortality, toxicity, teratogenicity and motility of exposed embryos/larvae; assay type: in vivo; details: EE2 1 nM, BPA 0.1, 1, 10 μM; until 7-days larval stage; data not shown
zfERα [1] = target: T1, zfERα (Danio rerio, UniProt P57717); experiment: competitive binding assay vs [3H]-E2 on in vitro translated zfERα; parameters: containing the coding regions of each zebrafish estrogen receptor cDNA; species or system zebrafish; details: for receptor-binding activity: competition with [3H]-E2, ERα, Figure 8A; for IC50: displacement of 10^−9 M [3H]-E2, ERα
T1 sequence (P57717 1-569): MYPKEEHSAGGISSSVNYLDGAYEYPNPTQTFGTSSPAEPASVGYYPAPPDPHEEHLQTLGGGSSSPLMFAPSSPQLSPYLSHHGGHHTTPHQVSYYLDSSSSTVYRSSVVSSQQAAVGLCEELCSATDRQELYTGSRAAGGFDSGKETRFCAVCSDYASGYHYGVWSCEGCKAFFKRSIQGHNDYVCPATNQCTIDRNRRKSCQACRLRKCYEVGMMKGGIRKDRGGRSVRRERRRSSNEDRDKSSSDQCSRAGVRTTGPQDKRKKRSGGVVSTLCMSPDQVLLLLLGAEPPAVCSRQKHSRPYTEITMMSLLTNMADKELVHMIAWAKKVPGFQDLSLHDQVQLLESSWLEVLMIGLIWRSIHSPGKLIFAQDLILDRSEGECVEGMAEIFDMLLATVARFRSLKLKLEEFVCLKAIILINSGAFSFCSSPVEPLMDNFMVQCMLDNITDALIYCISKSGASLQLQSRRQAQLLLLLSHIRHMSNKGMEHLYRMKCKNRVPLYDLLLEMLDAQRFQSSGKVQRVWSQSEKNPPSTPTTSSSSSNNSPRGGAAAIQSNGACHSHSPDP
Method: We also performed a competitive binding assay to test the binding properties of our compounds of interest with the three zfERs (Blair et al., [2000]). The three zebrafish estrogen receptor proteins were synthesized using the Topo-pcDNA3 expression vector containing the coding region of zfERα, zfERβ1, and zfERβ2 (Menuet et al., [2002]). The TNT Quick Coupled Transcription/Translation Systems kit (Promega, Madison, WI, USA) was used for synthesis of zfER proteins by adding 1 μg of each ER expression vector and according to the manufacturer's protocol. […] IC50 were calculated using GraphPad Prism, version 6.07.

cyp19a1b transcripts = experiment: cyp19a1b in situ hybridization on 7-dpf brain sections; assay type: in vivo, zebrafish; details: 7-dpf larvae; for distribution of cyp19a1b transcripts in the whole brain: transverse sections
Method: (§1) For subsequent RT-qPCR and in situ hybridization analysis with wild type zebrafish, groups of 80 embryos (for each condition) were placed after 1 day post-fertilization (1-dpf) in a large glass flask containing 100 ml of embryonic medium (Mouriec et al., [2009b]). […] The embryos were held in the exposure flasks until 7-dpf larva stage. […] Embryos were maintained in the exposure dishes until 4-dpf larva stage. During the treatment period, 100% of the exposure medium was renewed every 24 h (for both wild type and transgenic zebrafish).
Larvae used for in situ hybridization experiments originated from the same exposition groups than RT-qPCR experiments. After exposure to the different conditions, 10 wild type 7-dpf larvae (for each treatment) were fixed overnight at 4°C in 4% paraformaldehyde, before embedding in parrafin. Serial thin transverse sections ([…]) were placed on cryofrost slides and subjected to in situ hybridization experiments. Sense and antisense digoxigenin-labeled riboprobes for the cyp19a1b gene were transcribed using the Digoxigenin RNA labeling kit in accordance with the manufacturer's instructions (Roche, Mannheim, Germany) and as previously described (Menuet et al., [2005]). The brain sections were processed for in situ hybridization using stringent conditions as previously published (D'Amico et al., [2011], [2013]). After NBT/BCIP revelation, sections were counterstained with DAPI, and mounted in a drop of vectashield (Vector Laboratories). All sections were photographed with an Olympus PROVIS AX70 microscope with a digital camera (Olympus SP71), or a Nikon multizoom AZ100 macroscope with a DS-Ri1 color camera.

cyp19a1b gene = experiment: RT-qPCR of cyp19a1b transcripts in wild type 7-dpf larva brains
Method: as §1
Tissue was sonicated (10 s, 3 times) in 250 μL Trizol Reagent (Invitrogen) and RNA extractions were carried out according to the manufacturer's protocol. Reverse transcription was carried out by incubating 2μg total RNA with 1μg of random primer oligonucleotides, 2.5ṁM dNTPs, and 50 U MMLV-RT (Promega) in the appropriate buffer for 10 min at 65°C and 60 min at 37°C. Quantitative Polymerase chain reaction (qPCR) experiments were performed in an iCycler thermocycler coupled to the MyiQ detector (Bio-Rad. Hercules, CA, USA) using iQ SYBR-Green Supermix (Bio-Rad) according to the manufacturer's protocol. The following primers were used: ef1 (fw) 5′-[…]-3′; ef1 (rev) 5′-[…]-3′; cyp19a1b (AroB; fw) 5′-[…] For each condition, the RT-PCR experiment was run in triplicates. Expression levels of ef1 mRNA were used to normalize cyp19a1b expression levels. Melting curve and PCR efficiency analyses were performed to confirm correct amplification. For quantification of PCR results, the threshold cycle (Ct) was determined for each reaction. Ct values for each gene of interest were normalized with the housekeeping gene ef1, using the ΔΔCt method. Normalized values were used to calculate the degree of induction or inhibition expressed as a “fold difference” compared to normalized control values.

cyp19a1b promoter = experiment: EASZY assay: GFP fluorescence in brain of live cyp19a1b-GFP transgenic 4-dpf larvae; assay type: in vivo, zebrafish; details: 4-dpf cyp19a1b-GFP larvae, exposure 2 hpf to 4 dpf
Method: Quantification of fluorescence in transgenic cyp19a1b-GFP zebrafish larva brain was performed according to Brion et al. ([2012]). In this assay, estrogenic activity is detected in living 4 days-old larvae (treated or not with an estrogen mimic compound) from the observation of the reporter gene fluorescence in the radial glial cells. […] All photographs were taken using the same parameters: only the head was photographed under a X10 objective, with a 134 ms exposure time and maximal intensity. Photographs were analyzed using the Axiovision Imaging software and fluorescence quantification was performed using the ImageJ software (http://rsbweb.nih.gov/ij/). For each picture, the integrated density was measured, i.e., the sum of the gray-values of all the pixels within the region of interest. A gray-value of 290 was defined as background value. For each micrograph the fluorescence fold induction of fluorescence was calculated comparing the integrated pixel density with the average fluorescence induction obtained in the control group.

zfERα [2] = target: T1, zfERα; experiment: cyp19a1b-luciferase reporter gene assay in U251-MG glial cells transfected with zfERα; assay type: cell-based, zebrafish; parameters: containing the coding regions of each zebrafish estrogen receptor cDNA; expressed in transfected cells; host or cells: human U251-MG glial cells (ER-negative); details: for cyp19a1b-luciferase reporter gene induction: 10–6 M, 24 h, U251-MG cells with ERα, vs DMSO
Method: (§2) The medium was also supplemented with 20 U/mL penicillin, 20 μg/mL streptomycin, and 50 ng/mL amphotericin B (Gibco). For transfections, cells were plated in 24-well plates at a density of 25,000 cells/ml in the same medium, except the fetal calf serum was charcoal-treated and used at a concentration of 2.5%. Cells were transfected with 25 ng/well either the vector expression containing or not the zfERα, zfERβ1, zfERβ2 coding region and cytomegalovirus [CMV]−β-Galactosidase, and 150 ng/well of the cyp19a1b-Luciferase reporter plasmid, using JetPEI as a transfection reagent (Polyplus Transfection, Illkirch, France). […] Luciferase activity was measured 24 h later (Luciferase assay system, Promega, Madison, WI, USA). β-Galactosidase activity was used to normalize transfection efficiency. Chemicals were tested in at least 3 independent experiments and each experiment was performed in triplicate.

zfERβ1 = target: T2, zfERβ1 (Danio rerio, UniProt Q5PR29); experiment: cyp19a1b-luciferase reporter gene assay in U251-MG glial cells transfected with zfERβ1; assay type: cell-based, zebrafish; details: 10–9 M, 24 h, U251-MG cells with ERβ1, vs DMSO
T2 sequence (Q5PR29 1-592): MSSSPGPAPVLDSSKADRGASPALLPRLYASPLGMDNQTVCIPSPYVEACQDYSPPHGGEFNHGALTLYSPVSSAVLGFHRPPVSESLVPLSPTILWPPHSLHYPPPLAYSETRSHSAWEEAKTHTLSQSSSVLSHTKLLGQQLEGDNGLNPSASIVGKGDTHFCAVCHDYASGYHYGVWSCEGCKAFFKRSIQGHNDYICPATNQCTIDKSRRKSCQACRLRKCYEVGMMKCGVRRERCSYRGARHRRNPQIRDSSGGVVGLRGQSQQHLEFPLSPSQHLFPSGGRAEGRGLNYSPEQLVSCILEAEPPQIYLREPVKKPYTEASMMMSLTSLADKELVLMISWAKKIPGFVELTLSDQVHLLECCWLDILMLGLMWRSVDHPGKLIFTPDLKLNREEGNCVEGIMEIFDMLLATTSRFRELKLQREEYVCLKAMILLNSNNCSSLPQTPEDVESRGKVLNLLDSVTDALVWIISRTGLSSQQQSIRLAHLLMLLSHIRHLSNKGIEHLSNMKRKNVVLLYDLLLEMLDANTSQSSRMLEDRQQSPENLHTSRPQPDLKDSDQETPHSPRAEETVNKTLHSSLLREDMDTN
Source text: The zfER-α, zfER-β1, and zfER-β2 expression vectors correspond to Topo-pcDNA3 expression vector (Invitrogen, San Diego, CA, USA), containing the coding regions of each zebrafish estrogen receptor cDNA as previously described (Menuet et al., [2002]). The cyp19a1b-Luciferase plasmid consists of 500 bp of the proximal promoter region of zebrafish cyp19a1b gene, containing an ERE, coupled to the luciferase reporter gene (Menuet et al., [2002]).
as §2, with “Human U251-MG glial cells were maintained in phenol red-free Dulbecco's Modified Eagle's Medium (DMEM; Life Technologies, Saint Aubin, France) supplemented with 10% fetal calf serum (Biowest, Nuaillé, France), 4 mM L-Glutamine (Gibco, Carlsbad, CA, USA) and 1 mM Na-Pyruvate (Life Technologies, Saint Aubin, France) and kept at 37°C and 5% CO2 atmosphere (Le Page et al., [2006]). The” for “The”

zfERβ2 = zfERβ2 (Danio rerio, UniProt Q7ZU32); experiment: cyp19a1b-luciferase reporter gene assay in U251-MG glial cells transfected with zfERβ2; assay type: cell-based, zebrafish; details: 10–9 M, 24 h, U251-MG cells with ERβ2, vs DMSO
zfERβ2, sequence (Q7ZU32 1-553): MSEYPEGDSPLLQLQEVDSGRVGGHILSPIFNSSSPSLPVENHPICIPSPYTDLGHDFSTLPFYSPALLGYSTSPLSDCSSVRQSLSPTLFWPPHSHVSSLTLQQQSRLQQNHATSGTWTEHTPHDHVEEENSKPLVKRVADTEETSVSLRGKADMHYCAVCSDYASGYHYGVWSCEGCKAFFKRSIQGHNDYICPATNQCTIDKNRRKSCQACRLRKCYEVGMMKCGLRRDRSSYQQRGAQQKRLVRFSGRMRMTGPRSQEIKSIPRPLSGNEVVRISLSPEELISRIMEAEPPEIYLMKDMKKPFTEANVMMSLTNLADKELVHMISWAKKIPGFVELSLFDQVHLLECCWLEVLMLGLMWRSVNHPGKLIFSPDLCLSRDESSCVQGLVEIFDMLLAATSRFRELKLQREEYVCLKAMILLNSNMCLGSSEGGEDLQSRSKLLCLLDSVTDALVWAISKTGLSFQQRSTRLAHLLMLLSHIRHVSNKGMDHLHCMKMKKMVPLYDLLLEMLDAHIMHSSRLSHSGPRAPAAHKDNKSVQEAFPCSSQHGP
Method: as §2

CC(C)(c1ccc(O)cc1)c1ccc(O)cc1 [BPA, 2,2-bis(4-hydroxyphenyl)propane, reference compound]
toxic or teratogenic effect (zebrafish embryos/larvae): did not caused notable toxicological effects | receptor-binding activity (zfERα [1]): bind in vitro to ERα receptor | IC50 (zfERα [1]): 2.8 µM | cyp19a1b transcripts in the nucleus recessus posterioris (nrp), caudal hypothalamus (cyp19a1b transcripts; 1 μM): strong levels of cyp19a1b transcripts | distribution of cyp19a1b transcripts in the whole brain (cyp19a1b transcripts; 1 μM): strong presence of cyp19a1b transcripts in virtually identical regions than EE2-treated larvae | fold induction at 0.1 µM (cyp19a1b gene; Danio rerio, read-out: cyp19a1b gene expression, fold induction relative to DMSO, 0.1 μM, 7-dpf larvae brains, Figure 1A): 9 | fold induction at 1 µM (cyp19a1b gene; Danio rerio, read-out: cyp19a1b gene expression, fold induction relative to DMSO, 1 μM, 7-dpf larvae brains, Figure 1A): ~20 | fold induction at 1 µM (cyp19a1b gene; Danio rerio, read-out: cyp19a1b gene expression, fold induction relative to DMSO, 1 μM, 7-dpf larvae brains, six independent exposures, Figure 1B): ~36 | fold induction at 10 µM (cyp19a1b gene; Danio rerio, read-out: cyp19a1b gene expression, fold induction relative to DMSO, 10 μM, 7-dpf larvae brains, Figure 1A): 12 | fold induction at 1 µM (cyp19a1b promoter; Danio rerio, read-out: GFP fluorescence, fold induction above DMSO control): 16 | cyp19a1b-luciferase reporter gene induction (zfERα [2]): significant stimulation

Oc1ccc(Cc2ccc(O)cc2)cc1 [BPF, 4,4′-dihydroxydiphenyl methane]
receptor-binding activity (zfERα [1]): bind in vitro to ERα receptor | IC50 (zfERα [1]): 10.6 µM | distribution of cyp19a1b transcripts in the whole brain (cyp19a1b transcripts; 1 μM): identical to EE2- and BPA-treated animals | cyp19a1b gene expression, fold induction relative to DMSO (cyp19a1b gene; 1 μM, 7-dpf larvae brains, six independent exposures, Figure 1B): 20 fold | GFP fluorescence, fold induction above DMSO control (cyp19a1b promoter; 1 μM): 13 fold | cyp19a1b-luciferase reporter gene induction (zfERα [2]): increased luciferase activity in ERα cells, but the stimulation did not reach statistical significance

C#C[C@]1(O)CC[C@H]2[C@@H]3CCc4cc(O)ccc4[C@H]3CC[C@@]21C [EE2, 17α-ethinylestradiol, reference compound]
cyp19a1b-luciferase reporter gene induction (zfERβ1): strong induction | cyp19a1b-luciferase reporter gene induction (zfERβ2): strong induction | distribution of cyp19a1b transcripts in the whole brain (cyp19a1b transcripts; EE2 1 nM): massive over-expression of the cyp19a1b transcripts

C[C@]12CC[C@@H]3c4ccc(O)cc4C[C@@H](CCCCCCCCC[S+]([O-])CCCC(F)(F)C(F)(F)F)[C@H]3[C@@H]1CC[C@@H]2O (stereo partly drawn) [ICI, reference compound]
effect on BPA, BPF and BPAF stimulations of cyp19a1b-luciferase (zfERα [2]; simultaneous treatment, ERα-expressing U251-MG cells, Figure 7B): completely abolished
